This is an account of results in patent publication US12674139B2, “Serum-free medium not containing albumin and suited for culturing human hematopoietic stem cells, and albumin-free culturing method” (The University of Tokyo, priority 2019, dated 2026).

Non-standard residues stand in square brackets, D forms with d. No end group written: not given here. pY = N[C@@H](Cc1ccc(OP(=O)(O)O)cc1)C(=O)O

For assay [1], the system named is human CD34+ cells. The assay is described as follows: Culture of human bone marrow or umbilical cord blood CD34+ cells in PVA medium, proliferation rate by cell count and flow cytometry. As to conditions: for ratio of number of cells at day 7 relative to first day of culture: TPO replaced with TPO receptor agonist; for proliferation rate of total cells and CD34+ cells relative to start of culture: neither SCF nor TPO, 20 μM PI3Ka, 0.1 μM TPOago or both.
Text: The cells were dispensed to a 24-well plate at 0.2 to 1.0×10^5 cells per well, TPO was removed from a culture medium for human hematopoietic stem cells and replaced with any of the above-mentioned TPO receptor agonists (hereinafter, may be referred to as “TPOago”) to perform the experiment. The ratio of the number of cells at day 7 of culture relative to the first day of culture was obtained.
Subsequently, whether or not SCF and TPO can be replaced with PI3Ka and a TPO receptor agonist in the absence of albumin and in the presence of PVA was examined. In the following example, butyzamide was used as a TPO receptor agonist. […] Seven days later, the number of total cells was obtained, and the number of CD34+ cells was obtained by flow cytometry. Then, the proliferation rate compared with the start of culture was obtained.
Further, subsequently, a culture experiment of human hematopoietic stem cells was performed in a culture medium comprising neither SCF nor TPO to which 20 μM PI3Ka or 0.1 μM TPOago or both were added.
Further, subsequently, which cell population easily proliferated in a medium in which SCF and TPO were replaced with PI3Ka and TPOago was examined. CD34^+ cells isolated from given fresh umbilical cord blood using microbeads as described above were used in the culture experiment.
The cells were dispensed to a 24-well plate at 0.2×10^5 to 1.0×10^5 cells per well, and CD34^+ cells were cultured in the prepared media.

In another assay the test system is Mpl32D cells. The assay can be described thus: Culture with TPO receptor agonists as TPO replacements, with albumin or PVA. Type of assay: cell-based, human. As to conditions: 0.1 μM butyzamide, 3 μg/mL eltrombopag, 3 μM avatrombopag. The protocol: Subsequently, whether or not TPO can be replaced with a TPO receptor agonist in culture of human hematopoietic stem cells was examined. Butyzamide, eltrombopag, and avatrombopag are known as TPO receptor agonists. Human hematopoietic stem cells were cultured in the presence of 0.1% recombinant human serum albumin (Albumin Biosciences) or in the presence of PVA in the above-mentioned culture medium having a composition from which TPO was removed and to which 0.1 μM butyzamide, 3 μg/mL eltrombopag, or 3 μM avatrombopag was added. In this experiment, Mpl32D cells were used as human hematopoietic stem cells.

Assay [2] concerns human CD34+ cells. The assay can be described thus: Colony assay in MethoCult H4415 medium with Giemsa staining. Type of assay: cell-based. The following applies: cells after 7 days culture; 20 μM PI3Ka + 0.1 μM butyzamide versus PI3Ka + TPO. From the text:
Subsequently, whether or not SCF and TPO can be replaced with PI3Ka and a TPO receptor agonist in the absence of albumin and in the presence of PVA was examined. In the following example, butyzamide was used as a TPO receptor agonist. Purchased human bone marrow CD34+ cells (distributor name, Lonza; product number 2C-101) or CD34+ cells isolated from given fresh umbilical cord blood using microbeads as described above were used in the culture experiment. […] Two weeks later, colonies were picked up, cytospin specimens were prepared, Giemsa staining was performed, and then the types of colonies were determined under a microscope. The number of GEmM colonies per 50 CD34+ cells was counted, and the percentage increase in the number of colonies compared with before culture was obtained.
Further, 100 CD34+ cells obtained in the culture at […] after the start of culture were seeded each on a MethoCult™ H4415 medium, and a colony assay was performed. […] Then, after Giemsa staining was performed for the specimens, the types of colonies were determined under a microscope.

Assay [3] relates to human hematopoietic stem cells (CD34+CD38− cells). The assay is described as follows: Proliferation of human hematopoietic stem cells in albumin-free serum-free PVA medium. The class given is cell-based. The following applies: no albumin. The protocol: In this example, an assay was performed in which mouse hematopoietic stem cells (KSL cells) and human hematopoietic stem cells (CD34^+CD38^− cells) were allowed to proliferate in a culture medium not comprising albumin. The culture medium was a serum-free medium comprising polyvinyl alcohol (PVA) and not comprising albumin, as described in Wilkinson et al., Nature, 571:117-121, 2019.
Specifically, the culture medium used for culture of mouse hematopoietic stem cells was an F12 medium comprising 1% insulin-transferrin-selenium-ethanolamine (ITSX), 10 mM HEPES, 1% penicillin-streptomycin-glutamine, 100 ng/mL mouse thrombopoietin (mTPO), and 10 ng/mL mouse stem cell factor (mSCF). The medium comprised PVA at the final concentration of 0.1%. The culture medium used for culture of human hematopoietic stem cells was an IMDM medium comprising 1% insulin-transferrin-selenium-ethanolamine (ITSX), 25 mM HEPES, 1% penicillin-streptomycin-glutamine, 100 ng/mL human thrombopoietin (hTPO), and 10 ng/mL human stem cell factor (hSCF). The medium comprised PVA at the final concentration of 0.1%.
Unless otherwise specified, all media used in the following examples were an IMDM medium comprising 1% insulin-transferrin-selenium-ethanolamine (ITSX), 25 mM HEPES, 1% penicillin-streptomycin-glutamine, and PVA (hereinafter, also referred to as “common medium”). Therefore, hereinafter, description of the medium will be focused on components added to the common medium. For example, given that the above-mentioned medium comprises TPO and SCF in addition to the common medium, it is to be referred to as a TPO+SCF medium for the purpose of convenience. […]
Accordingly, human hematopoietic stem cells were cultured in a culture medium comprising 0.3 μM AKTa (name of distributer, Sigma-Aldrich; product number 123871) or 20 μM PI3Ka. Cells were counted after 3 days, 5 days, and 7 days of culture, and the ratios of the number of cells at each time point to the number of cells on the first day of culture, which was standardized as 1, were obtained. […]

Where [4] appears, read: 0.1% recombinant human serum albumin, no TPO.
Setting [5] is: day 7, 20 μM PI3Ka + TPO 100 ng/mL.

With `CC(C)n1cnc2c(NCCc3ccc(O)cc3)nc(-c3csc4ccccc34)nc21` [SR-1], the “proliferation rate of total cells relative to before start of culture” value in the assay on human CD34+ cells [1] (day 14, added to 20 μM PI3Ka + 0.1 μM TPOago, SR-1 500 nM, UM171 35 nM) is recorded as “killed cells”.

Take `CCCOC(c1cccc(-c2csc(NC(=O)c3cc(Cl)c(C=C(C)C(=O)O)c(Cl)c3)n2)c1OC)C(C)(C)C` (centres unmarked) [butyzamide, 3-[4-[[[4-[2-methoxy-3-(1-tert-butyl-2-oxapentan-1-yl)phenyl]thiazol-2-yl]amino]carbonyl]-2,6-dichlorophenyl]-2-methylpropenoic acid]: the “proliferation (change with time in number of cells)” value in the assay on Mpl32D cells (setting [4]) is “could support proliferation”; in the assay on Mpl32D cells (PVA, no albumin) it was “marked proliferative effect”. In the assay with human CD34+ cells [1] (PVA, no albumin), the “ratio of number of cells at day 7 relative to first day of culture” value is listed as “significantly proliferated”. The “proliferation rate of total cells and CD34+ cells compared with start of culture” value in the assay with human CD34+ cells [1] (day 7, 20 μM PI3Ka + 0.1 μM butyzamide versus 20 μM PI3Ka + TPO 100, PVA, no albumin, no SCF) is reported as “could completely replace TPO”. Also, the “proliferation rate of total cells and CD34+ cells relative to start of culture” value in the assay with human CD34+ cells [1] (day 7, PVA, no albumin) is recorded as “increases of cells were not observed”. In addition, the “GEmM colony forming ability (number of GEmM colonies per 50 CD34+ cells)” value in the assay with human CD34+ cells [2] was “could completely replace TPO”.

Take “PI3Ka: peptide of amino acid sequence RQIKIWFQNRRMKWKKSDGGYMDMS in which Y is phosphorylated; Tocris product number 1983 (RQIKIWFQNRRMKWKKSDGG[pY]MDMS)”: in assay [3] (3, 5, 7 days, SCF 10 ng/mL + TPO 100 ng/mL, 0.3 μM AKTa or 20 μM PI3Ka), the “ratio of number of cells to first day of culture” value is “clearly proliferated”. In addition, in assay [3] (setting [5]), the “number of CD34+ cells, with SCF versus without SCF” value is “no significant difference” and the “number of total cells, with SCF versus without SCF” value was “no significant difference”. Besides, the “proliferation rate of total cells and CD34+ cells relative to start of culture” value in the assay with human CD34+ cells [1] (day 7, PVA, no albumin) is listed as “increases of cells were not observed”.

For `O=C(Nc1nc(-c2cc(Cl)cs2)c(N2CCN(C3CCCCC3)CC2)s1)c1cnc(N2CCC(C(=O)O)CC2)c(Cl)c1` [avatrombopag], the “proliferation (change with time in number of cells)” value with Mpl32D cells (setting [4]) is listed as “could support proliferation”; in the assay on Mpl32D cells (PVA, no albumin) it was “low effect”. The “ratio of number of cells at day 7 relative to first day of culture” value in the assay on human CD34+ cells [1] (PVA, no albumin) is “Death of hematopoietic stem cells occurred”.
